Measured values: PubChem BioAssay AID248 (DTP/NCI, 2004)
Inconclusive results and toxic doses are left out. Cut-off read from the data, not from the text of the source: active = T/C of 150% or more; inactive = T/C below 125%.

Test system: L1210 leukemia ip in BDF1 mice, survival T/C
Assay: NCI In Vivo Anticancer Drug Screen. Data for tumor model L1210 Leukemia (intraperitoneal) in B6D2F1 (BDF1) mice
Settings: endpoint: mean survival time, higher = longer survival
In short: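 Transplantable tumor model; survival measured in treated vs vehicle control mice. Value = treated/control.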

[1] = dose: 100.0 mg/kg/injection, schedule: Q01DX009 (ip), vehicle: Klucel (hydroxypropylcellulose) (HPC)
[2] = dose: 100.0 mg/kg/injection, schedule: Q04DX003 (ip), vehicle: Klucel (hydroxypropylcellulose) (HPC)
[3] = dose: 200.0 mg/kg/injection, schedule: Q01DX009 (ip), vehicle: Klucel (hydroxypropylcellulose) (HPC)
[4] = dose: 200.0 mg/kg/injection, schedule: Q04DX003 (ip), vehicle: Klucel (hydroxypropylcellulose) (HPC)
[5] = dose: 400.0 mg/kg/injection, schedule: Q01DX009 (ip), vehicle: Klucel (hydroxypropylcellulose) (HPC)
[6] = dose: 400.0 mg/kg/injection, schedule: Q04DX003 (ip), vehicle: Klucel (hydroxypropylcellulose) (HPC)
[7] = dose: 100.0 mg/kg/injection, schedule: Q01DX001 (ip), vehicle: saline
[8] = dose: 200.0 mg/kg/injection, schedule: Q01DX001 (ip), vehicle: saline
[9] = dose: 400.0 mg/kg/injection, schedule: Q01DX001 (ip), vehicle: saline
[10] = dose: 50.0 mg/kg/injection, schedule: Q01DX009 (ip), vehicle: saline
[11] = dose: 100.0 mg/kg/injection, schedule: Q01DX009 (ip), vehicle: saline
[12] = dose: 100.0 mg/kg/injection, schedule: Q04DX003 (ip), vehicle: saline
[13] = dose: 200.0 mg/kg/injection, schedule: Q04DX003 (ip), vehicle: saline
[14] = dose: 400.0 mg/kg/injection, schedule: Q04DX003 (ip), vehicle: saline
[15] = dose: 25.0 mg/kg/injection, schedule: Q01DX009 (ip), vehicle: saline
[16] = dose: 50.0 mg/kg/injection, schedule: Q04DX003 (ip), vehicle: saline
[17] = dose: 50.0 mg/kg/injection, schedule: Q01DX001 (ip), vehicle: saline

Measured: T/C

CC(C)N(C(=O)Nc1ccccc1Cl)c1ccccc1
inactive: [1] 96 % of control | [2] 92 % of control | [3] 92 % of control | [4] 100 % of control | [5] 97 % of control | [6] 92 % of control

[N-]=[N+]=Nc1ccc(S(N)(=O)=O)cc1
inactive: [7] 99 % of control | [8] 94 % of control | [9] 93 % of control

O=C1c2ccccc2-c2nc3cncnc3nc21 (tested in a mixture with another compound)
inactive: [10] 98 % of control | [11] 101 % of control | [12] 95 % of control | dose: 200.0 mg/kg/injection, schedule: Q01DX009 (ip), vehicle: saline 101 % of control | [13] 101 % of control

CC1CC2CCC1C2O (stereo not given)
inactive: dose: 37.5 mg/kg/injection, schedule: Q04DX003 (ip), vehicle: saline 100 % of control | dose: 75.0 mg/kg/injection, schedule: Q04DX003 (ip), vehicle: saline 97 % of control | dose: 150.0 mg/kg/injection, schedule: Q04DX003 (ip), vehicle: saline 90 % of control

OC1c2cc(Cl)cc(Cl)c2-c2c(Cl)cc(Cl)cc21
inactive: [12] 96 % of control | [13] 98 % of control | [14] 106 % of control

O=C(c1ccccc1)C1(Br)CCCCC1
inactive: [1] 96 % of control | [11] 95 % of control | [3] 96 % of control | [5] 93 % of control | dose: 400.0 mg/kg/injection, schedule: Q01DX009 (ip), vehicle: saline 101 % of control

CC(C(=O)N1c2ccccc2Sc2ccccc21)[N+](C)(C)C (stereo not given)
inactive: dose: 12.5 mg/kg/injection, schedule: Q04DX003 (ip), vehicle: saline 112 % of control | [15] 100 % of control | dose: 25.0 mg/kg/injection, schedule: Q04DX003 (ip), vehicle: saline 98 % of control | [10] 102 % of control | [16] 104 % of control | [12] 104 % of control

CCC(=O)c1ccc(OC(C)=O)c(OC(C)=O)c1
inactive: [17] 101 % of control | [7] 101 % of control | [12] 100 % of control | [8] 109 % of control | [13] 97 % of control | [9] 97 % of control | [14] 100 % of control

CC(=O)OC1c2ccccc2C2c3ccccc3C1C2Cl (stereo not given)
inactive: dose: 176.0 mg/kg/injection, schedule: Q01DX001 (ip), vehicle: carboxymethylcellulose (CMC) 91 % of control | dose: 264.0 mg/kg/injection, schedule: Q01DX001 (ip), vehicle: carboxymethylcellulose (CMC) 95 % of control | dose: 400.0 mg/kg/injection, schedule: Q01DX001 (ip), vehicle: carboxymethylcellulose (CMC) 92 % of control | dose: 600.0 mg/kg/injection, schedule: Q01DX001 (ip), vehicle: carboxymethylcellulose (CMC) 89 % of control

COc1ccc(Cl)cc1N1C(=O)C2C(C1=O)C1(Cl)C(Cl)=C(Cl)C2(Cl)C1(Cl)Cl (stereo not given)
inactive: dose: 50.0 mg/kg/injection, schedule: Q01DX009 (ip), vehicle: Klucel (hydroxypropylcellulose) (HPC) 91 % of control | [1] 101 % of control | [2] 98 % of control | [4] 98 % of control

CC(C(=O)O)C(NC(=O)c1ccccc1)C(=O)O (stereo not given)
inactive: dose: 100.0 mg/kg/injection, schedule: Q01DX001 (ip), vehicle: Klucel (hydroxypropylcellulose) (HPC) 93 % of control | dose: 200.0 mg/kg/injection, schedule: Q01DX001 (ip), vehicle: Klucel (hydroxypropylcellulose) (HPC) 100 % of control | dose: 400.0 mg/kg/injection, schedule: Q01DX001 (ip), vehicle: Klucel (hydroxypropylcellulose) (HPC) 92 % of control

COc1ccc(/C=C(C(=O)O)/C(=C/c2ccc(OC)c(OC)c2)C(=O)O)cc1OC
inactive: [1] 96 % of control | [2] 95 % of control | [3] 105 % of control | [4] 96 % of control | [5] 91 % of control | [6] 98 % of control

CC1([N+](=O)[O-])COP(=O)(O)OC1 (stereo not given)
inactive: [8] 90 % of control | [9] 97 % of control

COc1ccc(OC)c(NC(=O)Oc2ccc(Br)cc2Br)c1
inactive: dose: 100.0 mg/kg/injection, schedule: Q04DX002 (ip), vehicle: Klucel (hydroxypropylcellulose) (HPC) 104 % of control | dose: 200.0 mg/kg/injection, schedule: Q04DX002 (ip), vehicle: Klucel (hydroxypropylcellulose) (HPC) 104 % of control | dose: 400.0 mg/kg/injection, schedule: Q04DX002 (ip), vehicle: Klucel (hydroxypropylcellulose) (HPC) 86 % of control

COc1ccc(NC(=O)Nc2ccc(F)cc2)c(OC)c1
inactive: [1] 91 % of control | [2] 100 % of control | [3] 100 % of control | [4] 91 % of control | [5] 96 % of control | [6] 100 % of control

CC(C)(C)c1cc(OCC2CO2)ccc1OCC1CO1 (stereo not given)
inactive: [7] 107 % of control | [8] 107 % of control | [9] 95 % of control

CSC(N)=Nc1c(C)cccc1C
inactive: [16] 102 % of control | [7] 98 % of control | [12] 106 % of control | [8] 100 % of control | [13] 101 % of control

Clc1ccc(OCc2sc3ccc(Br)cc3c2CN2CCOCC2)cc1
inactive: dose: 75.0 mg/kg/injection, schedule: Q01DX009 (ip), vehicle: Klucel (hydroxypropylcellulose) (HPC) 100 % of control | [2] 94 % of control | dose: 150.0 mg/kg/injection, schedule: Q01DX009 (ip), vehicle: Klucel (hydroxypropylcellulose) (HPC) 105 % of control | [4] 96 % of control | dose: 300.0 mg/kg/injection, schedule: Q01DX009 (ip), vehicle: Klucel (hydroxypropylcellulose) (HPC) 95 % of control | [6] 89 % of control

CCOC(=O)COc1ccc(C=O)cc1
inactive: [1] 110 % of control | [2] 102 % of control | [3] 96 % of control | [4] 96 % of control | [5] 98 % of control | [6] 97 % of control

O=C(O)CCc1ccc([N+](=O)[O-])cc1Cl
inactive: [2] 96 % of control | [4] 101 % of control | [6] 101 % of control

O=C(/C=C/c1ccccc1)CC(O)(C(F)(F)F)C(F)(F)F
inactive: dose: 100.0 mg/kg/injection, schedule: Q04DX003 (sc), vehicle: olive oil, sesame oil, peanut oil 113 % of control | dose: 200.0 mg/kg/injection, schedule: Q04DX003 (sc), vehicle: olive oil, sesame oil, peanut oil 113 % of control | dose: 400.0 mg/kg/injection, schedule: Q04DX003 (sc), vehicle: olive oil, sesame oil, peanut oil 108 % of control

C/C(CC(=O)Nc1ccc(Cc2ccc(Cl)cc2)cc1)=N/Nc1ccc([N+](=O)[O-])cc1[N+](=O)[O-]
inactive: [7] 94 % of control | [8] 101 % of control

O=C(N/N=C\c1c(O)ccc2ccccc12)c1ccncc1
inactive: [2] 106 % of control | [4] 101 % of control | [6] 108 % of control

CC(O)c1cccc(NC(=O)NC(C)(C)C)c1 (stereo not given)
inactive: [1] 102 % of control | [3] 107 % of control | [5] 113 % of control

O=CNc1cc2c3c(c1)CCCN3CCC2
inactive: dose: 12.5 mg/kg/injection, schedule: Q01DX001 (ip), vehicle: saline 102 % of control | dose: 25.0 mg/kg/injection, schedule: Q01DX001 (ip), vehicle: saline 108 % of control | [15] 105 % of control | [17] 107 % of control | [10] 106 % of control | [7] 100 % of control

O=C1C=CC(=O)N1c1ccc(Cl)cc1
inactive: dose: 10.0 mg/kg/injection, schedule: Q01DX009 (ip), vehicle: Klucel (hydroxypropylcellulose) (HPC) 100 % of control | dose: 10.0 mg/kg/injection, schedule: Q04DX003 (ip), vehicle: other 97 % of control | dose: 20.0 mg/kg/injection, schedule: Q01DX009 (ip), vehicle: Klucel (hydroxypropylcellulose) (HPC) 88 % of control | dose: 20.0 mg/kg/injection, schedule: Q04DX003 (ip), vehicle: other 95 % of control | dose: 40.0 mg/kg/injection, schedule: Q04DX003 (ip), vehicle: other 95 % of control

C/C(=N/Nc1c(F)c(F)c(-c2c(F)c(F)c(N/N=C(\C)c3ccccc3)c(F)c2F)c(F)c1F)c1ccccc1
inactive: dose: 25.6 mg/kg/injection, schedule: Q04DX002 (ip), vehicle: saline with Tween-80 95 % of control | dose: 64.0 mg/kg/injection, schedule: Q04DX002 (ip), vehicle: saline with Tween-80 92 % of control | dose: 160.0 mg/kg/injection, schedule: Q04DX002 (ip), vehicle: saline with Tween-80 89 % of control | dose: 400.0 mg/kg/injection, schedule: Q04DX002 (ip), vehicle: saline with Tween-80 92 % of control
